The test system of assay [1] is Human pancreatic cancer strain AsPC-1. Briefly: AsPC-1 cell growth inhibitory activity (AsPC-1CGI). In kind it is cell-based. The conditions noted are these: AsPC-1 cells, 96 hours, CellTiter-Glo; read-out: IC50 value (50% growth inhibition concentration). The method, then:
AsPC-1 cell growth inhibitory activity can be performed by methods known to those skilled in the art using devices, reagents, cell lines, and the like available from commercial suppliers. Specifically, Compound 1 was serially diluted with dimethyl sulfoxide, then 200 nL of the dilution was dispensed into the U-bottom 96 well plate with Labcyte Echo. Human pancreatic cancer strain AsPC-1 was added to RPMI-1640 medium supplemented with 15% bovine fetal serum to prepare a cell suspension of 1000 cells/100 μL. The cell suspension was dispensed by 100 μL per well to Compound 1-added plates, and cultured in a 37° C., 5% carbon dioxide gas incubator. After 96 hours, 80 μL of CellTiter-Glo (Promega Corporation) was added to each well, and […] was measured. Cell growth inhibition (CGI) of the test compound was calculated as 50% growth inhibition concentration (IC50 value) from the growth inhibition rate of the case with addition of Compound I to the control without addition of Compound 1.
(In ATP-based viability assays light output follows the ATP content of the culture.)

Assay [2] has as its target Kras-SOS1 protein-protein interaction (Homo sapiens, UniProt P01116, G12D). Description: Kras-SOS1 protein-protein interaction inhibition (KrasG12D-SOS PPI) using AlphaScreen. It is filed as binding. The conditions noted are these: biotin-tagged human Kras (GDP-loaded) and His-tagged human SOS1, AlphaScreen. (In general: In Alpha technology, singlet oxygen from a donor bead excites a nearby acceptor bead.)
Experimental: Kras-SOS1 protein-protein interaction inhibition (PPI) can be performed by a method known to those skilled in the art using a device, a reagent, or the like available from commercial suppliers. Specifically, biotin-tagged human Kras and His-tagged human SOS1 enzymes expressed in E. coli and loaded with GDP after purification were used to measure PPI by energy transfer from nickel-bound donor beads to streptavidin-bound acceptor beads. This measurement is performed by irradiating the donor beads with light of 680 nm to induce energy transfer to the acceptor beads via singlet oxygen, and detecting light of 520 to 620 nm from the acceptor beads. Based on the inhibition of the control group without Compound 1, 50% inhibitory concentration (IC50 value) was calculated.

One compound from patent US20240366711A1, “PREPARATION CONTAINING CYCLIC PEPTIDE COMPOUND AND METHOD FOR PRODUCING SAME” (CHUGAI SEIYAKU KABUSHIKI KAISHA, priority 2021, published 2024) can be followed below.

Bridge positions count the residues as written; N and C are the ends. Square brackets hold non-standard residues; d marks the D form. Peptide text beside a SMILES is read from it. hPhe(3,5-F2-4-CF3) = N[C@@H](CCc1cc(F)c(C(F)(F)F)c(F)c1)C(=O)O; NEtPhe(4-Me) = CCN[C@@H](Cc1ccc(C)cc1)C(=O)O; NMeGly(cPent) = CN[C@H](C(=O)O)C1CCCC1; NMeD = CN[C@@H](CC(=O)O)C(=O)O; NMeL = CN[C@@H](CC(C)C)C(=O)O; NMeA = CN[C@@H](C)C(=O)O; Ac5c = NC1(C(=O)O)CCCC1; Aze = O=C(O)[C@@H]1CCN1; Sar = CNCC(=O)O Some results are limits rather than exact numbers.

Sequence of Kras-SOS1 protein-protein interaction (P01116 whole entry G12D): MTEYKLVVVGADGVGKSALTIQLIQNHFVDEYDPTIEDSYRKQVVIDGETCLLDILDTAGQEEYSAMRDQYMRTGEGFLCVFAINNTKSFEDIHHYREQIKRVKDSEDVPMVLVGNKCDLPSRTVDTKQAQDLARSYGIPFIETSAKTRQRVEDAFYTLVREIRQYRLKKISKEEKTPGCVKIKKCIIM

Turning to `CC[C@H](C)[C@@H]1NC(=O)[C@H](CC(C)C)N(C)C(=O)C[C@@H](C(=O)N(C)C)N(C)C(=O)[C@H](C2CCCC2)N(C)C(=O)C2(CCCC2)NC(=O)[C@@H]2CCCN2C(=O)[C@H](CCc2cc(F)c(C(F)(F)F)c(F)c2)NC(=O)CN(C)C(=O)[C@H](Cc2ccc(C)cc2)N(CC)C(=O)[C@@H]2CCN2C(=O)[C@H](C)N(C)C1=O` [Compound 1, (5S,8S,11S,15S,18S,23aS,29S,35S,37aS)-8-((S)-sec-butyl)-18-cyclopentyl-29-(3,5-difluoro-4-(trifluoromethyl)phenethyl)-36-ethyl-11-isobutyl-N,N,5,6,12,16,19,33-octamethyl-35-(4-methylbenzyl)-4,7,10,13,17,20,23,28,31,34,37-undecaoxotetratriacontahydro-2H,4H-spiro[azeto[2,1-u]pyrrolo[2,1-i][1,4,7,10,13,16,19,22,25,28,31]undecaazacyclotetratriacontin-21,1′-cyclopentane]-15-carboxamide] ([NMeL]I[NMeA][Aze][NEtPhe(4-Me)][Sar][hPhe(3,5-F2-4-CF3)]P[Ac5c][NMeGly(cPent)][NMeD]-NMe2; lactam N-11), the IC50 in assay [1] is ≤ 20 nM; in assay [2] it was 1 nM.
